Columns and labels:
corneal epithelial wound = conditions: cited from earlier work
[1] = tested on: human adult dermal fibroblasts; assay: two-dimensional outmigration of fibroblasts from contracted collagen gels over protein coated surfaces; type: cell-based; conditions: for effect of synthetic peptide added to the outmigration assay on migration of fibroblasts onto dried FN: FN coated plates
Method: (§1) Primary cultures of human adult dermal fibroblasts, acquired from Marcia Simon (Living Skin Bank, SUNY at Stony Brook), the ATCC (Bethesda, Md.), or the NIA (Bethesda, Md.), are cultured in Dulbecco's modified Eagle's medium (DMEM, Life Technologies) containing 42 mM sodium bicarbonate and supplemented with 100 U/ml penicillin, 100 μg/ml streptomycin, and 10% fetal bovine serum (FBS, HyClone, Logan, Utah), at 37° C. and 5% CO2 /95% air in a humidified atmosphere. The cells are used between passages 4 and 12.
(§2) Fibroblast cultures at 80% confluence are harvested by treatment with 0.05% trypsin/0.01% EDTA. Trypsin is inactivated by addition of soy bean trypsin inhibitor in PBS containing 0.2% BSA. The cells are washed twice with DMEM+2% BSA and resuspended at a concentration of 1×10^6 cells/ml. The fibroblasts are mixed with neutralized collagen (Vitrogen 100, Celtrix Labs., Santa Clara, Calif.), 2% BSA, 30 ng/ml PDGF-BB, 30 μg/ml fibronectin, and concentrated DMEM so that the final concentration of DMEM and sodium bicarbonate is 1x. 600 μl of the cell mixture is added to the wells of a 24-well tissue culture plate, which has been precoated with 2% BSA. The collagen is allowed to polymerize at 37° C. The final concentration of collagen is 1.8 mg/ml and each gel contains 6×10^4 cells. After two hours incubation, the gels are gently detached from the plastic surface to allow contraction with the addition of 0.5 ml DMEM+2% BSA and 30 ng/ml PDGF-BB per well. The gels are incubated overnight at 37° C. in 100% humidity, 5% CO2 and 95% air.
(§3) Fibronectin, its fragments or recombinant domains were diluted with concentrated DMEM to the appropriate concentration. Aliquots of 450 μl protein solution are added to the wells of 24-well tissue culture plates (Becton-Dickinson, Lincoln Park, N.J.). After a 2 hour incubation at 37° C. in 5% CO2, plates were dried overnight at room temperature under sterile conditions.
Plates coated with dried proteins were washed once with PBS and incubated with 2% BSA for 1 hour at 37° C. to block nonspecific binding sites. After washing the plates three times with PBS, contracted-collagen gel organotypic constructs were attached to the coated plates. DMEM, 2% BSA and 30 ng/ml PDGF-BB was added to assay plates so that the medium was level with the top of the collagen gel.
For preparation of "gold standard" transmigration assays containing a dermal organotypic construct surrounded by a fibrin clot as previously described (Greiling and Clark 1997), dried fibrin fibril-coated dishes are washed once with PBS and fibroblast-contracted collagen gels are placed on the surface. Fibrinogen, at a final concentration of 300 μg/ml, is mixed with DMEM and 1.0 U/ml thrombin, added to the wells so that the solution is level with the top of the collagen gel, and allowed to clot at room temperature for 30 min. When needed, other supplements such as 30 ng/ml PDGF-BB are added to the mixture. […] All migration assays are quantified after a 24 hour incubation at 37° C. in 100% humidity, 5% CO2 and 95% air.
The number of migrated cells was quantified under a Nikon inverted phase microscope by visually counting identifiable cell nuclei located outside of the contracted collagen gel in the fibrin gel (transmigration assay) or on the matrix (outmigration assay). Within a given experiment each condition was run in triplicate and means ±SD calculated. […] Statistical differences among conditions can be determined by ANOVA.

[2] = tested on: human adult dermal fibroblasts; assay: three-dimensional transmigration from collagen gel into fibrin gel; type: cell-based
Method: as §1, §2
For preparation of "gold standard" transmigration assays containing a dermal organotypic construct surrounded by a fibrin clot as previously described (Greiling and Clark 1997), dried fibrin fibril-coated dishes are washed once with PBS and fibroblast-contracted collagen gels are placed on the surface. Fibrinogen, at a final concentration of 300 μg/ml, is mixed with DMEM and 1.0 U/ml thrombin, added to the wells so that the solution is level with the top of the collagen gel, and allowed to clot at room temperature for 30 min. When needed, other supplements such as 30 ng/ml PDGF-BB are added to the mixture. For HA 3-dimensional transmigration, wells are coated overnight at 37° C. with an appropriate solution of HA. The next day a fibroblast-contracted collagen gel is placed on the HA-coated well in DMEM, with or without 30 ng/ml PDGF-BB, is added so that the solution is level with the top of the collagen gels. All migration assays are quantified after a 24 hour incubation at 37° C. in 100% humidity, 5% CO2 and 95% air.
The number of migrated cells was quantified under a Nikon inverted phase microscope by visually counting identifiable cell nuclei located outside of the contracted collagen gel in the fibrin gel (transmigration assay) or on the matrix (outmigration assay). Within a given experiment each condition was run in triplicate and means ±SD calculated. All experiments were repeated at least three times. Statistical differences among conditions can be determined by ANOVA.
The extracellular matrix of the present invention was tested by use of the in vitro model as described in U.S. patent application Ser. No. 08/723,789, which is hereby incorporated by reference. The basis of the in vitro model is a contracted collagen gel containing fibroblasts which acquire a tissue-like phenotype within the collagen matrix. Surrounding the collagen gel, or dermal equivalent, with a fibrin clot produces a simple inside-outside model of the early cutaneous wound (FIG. 1). Without an added stimulus, no more than a few of the normal adult human dermal fibroblasts within the collagen gel would migrate into the fibrin gel. […]

[3] = tested on: human adult dermal fibroblasts; assay: fibroblast adhesion assay; type: cell-based
Method: as §1, §3
Assay plates are prepared as described under fibroblast migration assays. The assay for measuring fibroblast adhesion to matrix proteins are performed essentially as described (Gailit et al. 1993) except that the cell concentration is lowered to 100,000 cells/ml or 10,000 cells/well. […] The absorbance at 590 nm is measured with a dual wavelength microtiter plate reader (THERMOmax, Molecular Devices, Menlo Park, Calif.) and the reading corrected for light scattering by subtraction of the absorbance at 450 nm.

Which “effect on wound closure” value (corneal epithelial wound) does the source give for chondroitin sulfate here?
The value was “did not affect wound closure”.

Which results are given for fibronectin [FN]?
effect of reduction and alkylation of FN dimer to the monomeric state on ability to mediate migration [1]: did not affect; percent migration of that observed on FN, no additional protein added to plates ([1]; plates coated with 120 nmol/l protein, mean ± SD, triplicate, FN normalized to 100%): 100 ± 2.7%; transmigration on inclusion of FN in the collagen gel and in the fibrin gel ([2]; 30 μg/ml FN in each gel): restored transmigration to a normal level; transmigration on addition of FN to the FN-depleted fibrin gel ([2]; FN added to fibrin gel): restored; FN concentration giving optimal cell movement ([2]; FN added to fibrin gel, FN:fibrinogen ratio 1:10): 30 µg/mL; most effective FN concentration in each gel ([2]; FN in both collagen gel and fibrin gel, 10, 30, or 100 μg/ml tested): 30 µg/mL; decrease of fibroblast transmigration into the fibrin clot after removal of FN ([2]; FN removed from fibrinogen by gelatin affinity chromatography, 30 ng/ml PDGF-BB): about 80%; transmigration with FN-free collagen gels ([2]; serum omitted, collagen gel contracted with PDGF-BB): no transmigration occurred; effect of reduction and alkylation of FN dimer to the monomeric state on ability to mediate adhesion [3]: did not affect

Which “effect of synthetic peptide added to the outmigration assay on migration of fibroblasts onto dried FN” value [1] does the source give for “CS1: synthetic peptide from the IIICS segment of FN, SEQ ID NO:3 as tested” here?
The value was “slightly enhancing effect in the higher concentrations”.

With “peptide I: synthetic peptide from the heparin II binding domain of FN, SEQ ID NO:6 (YEKPGSPRREVVPRPRGV)” as the substance, how does the “effect of synthetic peptide added to the outmigration assay on migration of fibroblasts onto dried FN” value [1] read?
Its value is “inhibited the migration of fibroblasts onto dried FN in a dose-dependent manner”.

And the “effect of synthetic peptide on migration over collagen” value ([1]; collagen coated assay plates)?
Its value is “inhibitory effect in a dose-dependent manner”.

Reference: patent US6194378A, “Fibronectin peptides-based extracellular matrix for wound healing” (The Research Foundation of State University of New York, priority 1998, dated 2001)
